# Source: patent US10259823B2, “GLP-1 receptor modulators” (Celgene International II SÀRL, priority 2013, dated 2019)
# Biological target: T1, GLP-1R (Homo sapiens, UniProt P43220)
# T1 construct: host or cells: CRE-bla CHO-K1
# Experiment: EC20 GLP-1(9-36) PAM cAMP assay: dose response of compound in the presence of fixed concentration of GLP-1(9-36)
# Type: cell-based
# Details: GLP-1R CRE-bla CHO-K1 cells, compound dose response with fixed GLP-1(9-36), 30 min at 37° C.
# Description: EC20 GLP-1(9-36) PAM cAMP assay: dose response of compound in the presence of fixed concentration of GLP-1 (9-36).
# GLP-1R CRE-bla CHO-K1 cells cultured in growth medium (DMEM-High glucose, 10% dialyzed FBS, 0.1 mM NEAA, 25 mM Hepes, 100 U/mL penicillin/100 μg/mL streptomycin, 5 μg/mL Blasticidin, 600 μg/mL Hygromycin) were trypsinized and plated in suspension into 384 well white flat bottom plates at 5000 cells/well in 12 μL assay buffer (Hanks Balanced Salt solution, 10 mM hepes, 0.1% BSA, pH 7.4). A 5× compound dose response curve (12-point) was generated in assay buffer containing 1.5 mM IBMX, 4% DMSO. GLP-1(9-36) was diluted to 4.2 μM in assay buffer containing 1.5 mM IMBX and 4% DMSO. The 5× compound dose response was added (3 μL), followed by 0.5 μL of GLP-1(9-36) and cells were incubated for 30 min at 37° C. Direct detection of cAMP was carried out using DiscoveRx HitHunter cAMP kit according to manufacturer's instructions and luminescence was read using a SpectraMax M5 plate reader. Luminescence was converted to total cAMP using a cAMP standard curve and data was analyzed by non-linear regression to determine the EC50 and Emax.
# GLP-1(7-36): […]-NH2 (SEQ ID NO: GLP-1(9-36): […]-NH2(SEQ ID NO: 3) GLP-1(7-36) was purchased from GenScript. GLP-1(9-36) was purchased from Biopeptide Co., Inc.
# T1 sequence (P43220 24-463): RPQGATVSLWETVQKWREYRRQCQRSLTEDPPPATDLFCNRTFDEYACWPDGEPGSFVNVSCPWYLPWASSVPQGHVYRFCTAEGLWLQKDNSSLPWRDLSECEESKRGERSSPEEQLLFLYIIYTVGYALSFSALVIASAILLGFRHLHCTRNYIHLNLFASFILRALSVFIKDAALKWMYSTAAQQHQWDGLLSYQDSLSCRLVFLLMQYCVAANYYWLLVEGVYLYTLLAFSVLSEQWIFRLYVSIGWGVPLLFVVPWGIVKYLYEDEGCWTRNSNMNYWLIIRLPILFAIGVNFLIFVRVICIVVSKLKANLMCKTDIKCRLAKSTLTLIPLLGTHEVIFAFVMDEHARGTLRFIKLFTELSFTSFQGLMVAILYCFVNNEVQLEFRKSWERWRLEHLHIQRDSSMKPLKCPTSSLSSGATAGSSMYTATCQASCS
# T1 sequence (P01275 100-127 partner limits assumed): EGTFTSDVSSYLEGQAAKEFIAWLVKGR
row,SMILES,EC50
1,CCCCCCCOCCc1ccc(-c2nc(-c3ccc(C(NC(=O)c4ccc(C(C)(C)C)cc4)C(=O)O)cc3)no2)cc1 (centres unmarked) [Compound 71],2500 to 5000 nM
2,CCCCCCCOc1ccc(-c2cnc(-c3ccc(C[C@H](NC(=O)c4ccc(C(C)(C)C)s4)C(=O)N[C@H]4CCC[C@H]4C(=O)O)cc3)nc2)cc1 [Compound 382],800 to 2500 nM
3,CCCCCCCOc1ccc(-c2cnc(-c3ccc(C[C@H](NC(=O)c4ccc(C(C)(C)C)cc4)C(=O)NC[C@H]4CCNC4)cc3)nc2)cc1 [Compound 413],5000 to 10000 nM
4,CCCCCCCOc1ccc(-c2cnc(-c3ccc(C[C@H](NC(=O)c4ccc(C(C)(C)C)s4)C(=O)N[C@@H](CC(=O)NC4CC4)C(=O)O)cc3)nc2)cc1 [Compound 514],< 800 nM
5,CCCCCCCOc1ccc(-c2cnc(-c3ccc(C[C@H](NC(=O)c4ccc(C(C)(C)C)cc4)C(=O)NC(CCS(C)(=O)=O)C(=O)O)cc3)nc2)cc1 (some centres unmarked) [Compound 570],< 800 nM
6,CCCCCCCOc1ccc(-c2cnc(-c3ccc(C[C@H](NC(=O)c4ccc(C(C)(C)C)cc4)C(=O)N[C@@H](Cc4cn(C)cn4)C(=O)O)cc3)nc2)cc1 [Compound 576],800 to 2500 nM
7,CCCCCCCOc1ccc(-c2cnc(-c3ccc(C[C@H](NC(=O)c4ccc(C(C)(C)C)s4)C(=O)NC(C(=O)O)c4ccc(C)cc4)cc3)nc2)cc1 (some centres unmarked) [Compound 617],< 800 nM
8,CC(C)(C)c1ccc(C(=O)N[C@@H](Cc2ccc(-c3ncc(C4CCC(C(C)(C)C)CC4)cn3)cc2)C(=O)NCCC(=O)O)cc1 (some centres unmarked) [Compound 674],5000 to 10000 nM
9,CCCCCCCOC1CCN(c2cnc(-c3ccc(C[C@H](NC(=O)c4ccc(C(C)(C)C)cc4)C(=O)NCCC(=O)O)cc3)nc2)CC1 [Compound 693],5000 to 10000 nM
10,C/C=C/CCCOc1ccc(-c2cnc(-c3ccc(C[C@H](NC(=O)c4ccc(C(C)(C)C)cc4)C(=O)NCCC(=O)O)cc3)nc2)cc1 [Compound 714],2500 to 5000 nM
11,CCCC/C=C/COc1ccc(-c2cnc(-c3ccc(C[C@H](NC(=O)c4ccc(C(C)(C)C)cc4)C(=O)NCCC(=O)O)cc3)nc2)cc1 [Compound 715],2500 to 5000 nM
12,CCCCCCCOc1ccc(-c2cnc(-c3ccc(C[C@H](NC(=O)c4ccc(OC(C)C)cc4)C(=O)N[C@H](C)C(=O)O)cc3)nc2)cc1 [Compound 820],2500 to 5000 nM
13,CCCCCCCOc1ccc(-c2cnc(-c3ccc(C[C@H](NC(=O)c4ccc(OC(F)(F)F)cc4)C(=O)N[C@H](C)C(=O)O)cc3)nc2)cc1 [Compound 821],800 to 2500 nM
14,CCCCCCCOc1ccc(-c2cnc(-c3ccc(C[C@H](NC(=O)[C@H]4CC[C@H](C(C)(C)C)CC4)C(=O)N4CC[C@H](C(=O)O)C4)cc3)nc2)cc1 [Compound 858],800 to 2500 nM
15,CCCCCCCOc1ccc(-c2cnc(-c3ccc(C[C@H](NC(=O)c4oc(C(C)(C)C)cc4C)C(=O)N4CC[C@H](C(=O)O)C4)cc3)nc2)cc1 [Compound 866],2500 to 5000 nM
16,CC(C)(C)CCCOc1ccc(-c2cnc(-c3ccc(C[C@H](NC(=O)c4ccc(C(C)(C)C)s4)C(=O)NC(C(=O)O)C(O)c4ccccc4)cc3)nc2)cc1 (some centres unmarked) [Compound 944],< 800 nM
17,C[C@@H](NC(=O)[C@H](Cc1ccc(-c2ncc(-c3ccc(OCc4ccccc4)cc3F)cn2)cc1)NC(=O)c1ccc(C(C)(C)C)s1)C(=O)O [Compound 1024],800 to 2500 nM
